Source: PMC7450057, “Enhancing intracellular accumulation and target engagement of PROTACs with reversible covalent chemistry” (Nature Communications, 2020)
Values joined by “and” are separate entries in the source; they are usually repeats but may differ in a detail not shown here. Equal values may be shown once.

Legend:
NanoLuc-CRBN fusion = biological target: T1, NanoLuc-CRBN fusion (Homo sapiens, UniProt Q96SW2); test: NanoBRET CRBN in-cell target engagement assay; format: cell-based; conditions: for NanoBRET(%): Figure 3h, replicates; for IC50: HEK-293 cells, CRBN tracer 0.5 µM, triplicates, read-out: CRBN target engagement IC50,TE
T1 construct: host or cells: HEK 293T/17
Method: The target engagement assay for BTK or CRBN was from Promega (BTK kit, Cat. No. N2500; CRBN kit, Cat. No. CS1810C136) and was performed according to the manufacture’s instruction with some modifications. […] After 2 h incubation, the 3X Nano-Glo® Substrate with NanoLuc® extracellular inhibitor were added to cells and developed for 3 min at room temperature. BRET signals were collected using a BioTek SYNERGY H1 microplate reader equipped with a 450/80-nm BP filter for donor emission and a 610-nm LP filter for acceptor emission. BRET Ratio was calculated with the equation: [(Acceptor sample/Donor sample)–(Acceptor no tracer control/Donor no tracer control)] × 1000. The IC50 of the compound against its BTK or CRBN tracer was calculated using GraphPad Prism software.

MOLM-14 cells = test: AlamarBlue cell viability assay, MOLM-14; conditions: for Cell viability, MOML-14: Supplementary Figure 7, replicates
Method: The IC50 was calculated using GraphPad Prism software with a four-parameter dose-response curve fit.

BTK [1] = biological target: T2, BTK (Homo sapiens, UniProt Q06187); test: BTK degradation in MOLM-14 cells (western blot); format: cell-based; design: endogenous in cells; host or cells: MOLM-14; conditions: MOLM-14 cells; for Degradation at 200 nM (percentage of BTK degradation): 24 h incubation
BTK [2] = biological target: T2, BTK; test: In vitro BTK kinase assay (PhosphoSens); format: biochemical; design: purchased SignalChem B10-10H-10
Method: BTK kinase activity inhibition IC50 was measured by PhosphoSens® Kinase Assay Kit (Assay Quant Technologies Inc., Cat.# CSKS-AQT0101K). […] Active recombinant BTK was purchased from SignalChem (Cat.# B10-10H-10). All the drugs (3 warhead control and 4 PROTACs) were dissolved in DMSO (10 mM). […] To calculate the IC50, subtract the background fluorescence determined with the “no kinase” control for each time point from the total signal to obtain corrected Relative Fluorescence Units (RFU) values. Plot the corrected RFU vs. Time for each inhibitor concentration and determine the initial reaction rates (slope of the linear portion) for each progress curve for each inhibitor concentration. Then plot velocity (RFU corrected/minute) vs [inhibitor] and determine the IC50 using a 4-parameter logistic fit.

T1 sequence (Q96SW2 whole entry, the tested form may be a part): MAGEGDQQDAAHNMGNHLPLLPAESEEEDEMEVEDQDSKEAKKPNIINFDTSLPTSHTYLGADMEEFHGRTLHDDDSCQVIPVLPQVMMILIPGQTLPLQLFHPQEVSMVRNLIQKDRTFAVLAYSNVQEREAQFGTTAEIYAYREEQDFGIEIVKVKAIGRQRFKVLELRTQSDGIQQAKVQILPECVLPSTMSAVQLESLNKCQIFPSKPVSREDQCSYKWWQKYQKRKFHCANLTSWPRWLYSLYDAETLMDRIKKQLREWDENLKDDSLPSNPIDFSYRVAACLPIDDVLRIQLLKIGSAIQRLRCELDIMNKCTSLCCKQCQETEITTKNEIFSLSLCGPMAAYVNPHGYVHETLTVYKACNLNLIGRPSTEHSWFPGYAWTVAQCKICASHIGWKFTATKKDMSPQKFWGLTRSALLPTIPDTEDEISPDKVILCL
T1 sequence (Q16531 whole entry partner, the tested form may be a part): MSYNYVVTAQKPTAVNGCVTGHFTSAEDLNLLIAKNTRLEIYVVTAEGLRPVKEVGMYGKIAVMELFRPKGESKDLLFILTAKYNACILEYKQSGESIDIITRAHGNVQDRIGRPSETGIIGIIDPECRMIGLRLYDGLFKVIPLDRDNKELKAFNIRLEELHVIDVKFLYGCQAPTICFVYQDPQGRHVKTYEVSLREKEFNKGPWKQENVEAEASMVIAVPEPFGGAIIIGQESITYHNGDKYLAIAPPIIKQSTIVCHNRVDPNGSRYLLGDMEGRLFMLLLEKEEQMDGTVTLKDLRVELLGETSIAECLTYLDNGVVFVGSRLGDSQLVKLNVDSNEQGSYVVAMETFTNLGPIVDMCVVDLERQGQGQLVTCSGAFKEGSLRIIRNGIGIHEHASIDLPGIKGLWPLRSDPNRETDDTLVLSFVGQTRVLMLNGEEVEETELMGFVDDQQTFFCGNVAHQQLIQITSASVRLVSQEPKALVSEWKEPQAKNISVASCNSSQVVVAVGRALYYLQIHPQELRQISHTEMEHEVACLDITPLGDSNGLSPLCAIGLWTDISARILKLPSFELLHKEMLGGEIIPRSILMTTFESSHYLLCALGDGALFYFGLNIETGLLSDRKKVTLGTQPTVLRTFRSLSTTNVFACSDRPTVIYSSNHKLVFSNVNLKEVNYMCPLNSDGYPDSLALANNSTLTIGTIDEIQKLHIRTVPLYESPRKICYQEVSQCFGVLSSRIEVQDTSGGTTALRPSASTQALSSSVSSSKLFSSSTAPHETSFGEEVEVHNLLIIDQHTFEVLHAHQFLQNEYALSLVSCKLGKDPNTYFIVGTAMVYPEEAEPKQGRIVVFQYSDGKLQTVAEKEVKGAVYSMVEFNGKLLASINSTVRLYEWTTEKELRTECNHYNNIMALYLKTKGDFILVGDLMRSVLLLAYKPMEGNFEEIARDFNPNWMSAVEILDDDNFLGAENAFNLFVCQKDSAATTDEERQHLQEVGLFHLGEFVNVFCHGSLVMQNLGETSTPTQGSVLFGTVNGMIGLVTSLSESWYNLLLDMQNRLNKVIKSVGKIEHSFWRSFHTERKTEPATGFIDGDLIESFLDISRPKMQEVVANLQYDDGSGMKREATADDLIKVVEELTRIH
T2 sequence (Q06187 whole entry): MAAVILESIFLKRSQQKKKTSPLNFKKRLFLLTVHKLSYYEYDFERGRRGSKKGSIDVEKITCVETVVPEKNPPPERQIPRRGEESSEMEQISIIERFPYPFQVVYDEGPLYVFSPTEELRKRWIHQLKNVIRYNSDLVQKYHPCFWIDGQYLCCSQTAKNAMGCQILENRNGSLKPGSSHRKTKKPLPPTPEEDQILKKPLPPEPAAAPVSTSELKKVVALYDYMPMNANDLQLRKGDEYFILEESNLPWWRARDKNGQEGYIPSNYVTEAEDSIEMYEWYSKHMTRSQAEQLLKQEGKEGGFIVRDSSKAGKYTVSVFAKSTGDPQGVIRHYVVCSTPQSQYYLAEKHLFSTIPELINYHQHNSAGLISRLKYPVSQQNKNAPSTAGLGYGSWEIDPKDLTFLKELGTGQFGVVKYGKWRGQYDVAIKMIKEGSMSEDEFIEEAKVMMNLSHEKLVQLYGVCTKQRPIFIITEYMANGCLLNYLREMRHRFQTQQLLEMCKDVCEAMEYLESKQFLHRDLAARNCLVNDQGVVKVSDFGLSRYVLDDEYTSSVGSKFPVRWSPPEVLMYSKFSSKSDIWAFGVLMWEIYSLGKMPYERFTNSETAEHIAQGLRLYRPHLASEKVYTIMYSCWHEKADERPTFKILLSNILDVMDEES

NanoBRET(%) (NanoLuc-CRBN fusion; drug concentration 1.00E-05 M)	NanoBRET(%) (NanoLuc-CRBN fusion; drug concentration 1.60E-08 M)	NanoBRET(%) (NanoLuc-CRBN fusion; drug concentration 2.00E-06 M)	NanoBRET(%) (NanoLuc-CRBN fusion; drug concentration 3.20E-09 M)	NanoBRET(%) (NanoLuc-CRBN fusion; drug concentration 4.00E-07 M)	NanoBRET(%) (NanoLuc-CRBN fusion; drug concentration 8.00E-08 M)	IC50 (NanoLuc-CRBN fusion)	Degradation at 200 nM (percentage of BTK degradation) (BTK [1])	Compound	Cell viability, MOML-14 (MOLM-14 cells; drug concentration 1.00E-05 M)	Cell viability, MOML-14 (MOLM-14 cells; drug concentration 1.60E-08 M)	Cell viability, MOML-14 (MOLM-14 cells; drug concentration 2.00E-06 M)	Cell viability, MOML-14 (MOLM-14 cells; drug concentration 3.20E-09 M)	Cell viability, MOML-14 (MOLM-14 cells; drug concentration 4.00E-07 M)	Cell viability, MOML-14 (MOLM-14 cells; drug concentration 6.40E-10 M)	Cell viability, MOML-14 (MOLM-14 cells; drug concentration 8.00E-08 M)	other results
–	–	–	–	–	–	–	39%	CN(CCOCCNC(=O)CNc1cccc2c1C(=O)N(C1CCC(=O)NC1=O)C2=O)C(C)(C)C=C(C#N)C(=O)N1CCC[C@@H](n2nc(-c3ccc(Oc4ccccc4)cc3)c3c(N)ncnc32)C1 (stereo partly shown) [RC-3]	6.131 and 2.152 and 5.745 and 1.563 and 5.644	83.11 and 86.5611 and 70.0365 and 75.0101 and 88.6317	14.9208 and 11.551 and 11.6931 and 9.785 and 11.754	76.8575 and 93.7881 and 76.4921 and 85.0995 and 82.1762	53.106 and 44.4377 and 39.7686 and 41.149 and 48.4166	89.9919 and 78.9687 and 69.3463 and 82.7852 and 87.4746	71.5794 and 85.3634 and 65.8344 and 81.7296 and 79.4965	–
–	–	–	–	–	–	–	49%	CN(CCCCNC(=O)CNc1cccc2c1C(=O)N(C1CCC(=O)NC1=O)C2=O)C(C)(C)C=C(C#N)C(=O)N1CCC[C@@H](n2nc(-c3ccc(Oc4ccccc4)cc3)c3c(N)ncnc32)C1 (stereo partly shown) [RC-2]	1.939 (2×) and 0.9797 and 1.263 and 1.918	109.825 and 84.2418 and 85.8907 and 118.518 and 93.8319	9.2521 and 10.1835 and 11.1012 and 14.0541 and 10.0041	91.1619 and 67.352 and 96.5641 and 78.9913 and 73.6029	67.2416 and 67.0208 and 59.4522 and 60.425 and 58.2103	98.0682 and 96.9022 and 102.332 and 130.626 and 104.719	92.8384 and 69.3183 and 103.532 and 88.8644 and 89.4508	–
–	–	–	–	–	–	–	30%	CN(CCCNC(=O)COc1cccc2c1C(=O)N(C1CCC(=O)NC1=O)C2=O)C(C)(C)C=C(C#N)C(=O)N1CCC[C@@H](n2nc(-c3ccc(Oc4ccccc4)cc3)c3c(N)ncnc32)C1 (stereo partly shown) [RC-9]	-0.2322 and -0.06633 and -0.1327 and -0.8823 and -0.4179	85.6517 and 91.2637 and 79.403 and 91.5091 and 93.4859	9.041 and 7.098 and 11.4959 and 8.756 and 8.279	93.4859 and 94.8192 and 76.9154 and 100.657 and 77.1542	42.6932 and 44.9353 and 60.7695 and 44.0464 and 46.4279	113.612 and 82.5937 and 85.9834 and 109.612 and 104.358	79.6219 and 80.8756 and 76.0199 and 82.7728 and 91.7612	–
–	–	–	–	–	–	–	43%	CN(CCOCCOCCNC(=O)CNc1cccc2c1C(=O)N(C1CCC(=O)NC1=O)C2=O)C(C)(C)C=C(C#N)C(=O)N1CCC[C@@H](n2nc(-c3ccc(Oc4ccccc4)cc3)c3c(N)ncnc32)C1 (stereo partly shown) [RC-4]	7.995 and 4.587 and 6.948 and 0.6662 and 4.873	106.917 and 98.9797 and 102.749 and 88.7772 and 88.111	23.0509 and 25.7918 and 22.8415 and 19.1107 and 18.6919	98.1803 and 95.5954 and 92.3367 and 95.7248 and 84.8751	68.7719 and 62.8902 and 62.3953 and 62.1669 and 56.6088	92.8506 and 90.1858 and 94.6399 and 97.7806 and 77.071	89.7861 and 80.8588 and 84.9703 and 89.1389 and 65.2315	–
–	–	–	–	–	–	–	6%	CN(CCCCNc1cccc2c1C(=O)N(C1CCC(=O)NC1=O)C2=O)C(C)(C)C=C(C#N)C(=O)N1CCCC(n2nc(-c3ccc(Oc4ccccc4)cc3)c3c(N)ncnc32)C1 (stereo not shown) [RC-7]	14.5806 and 18.8166 and 13.8981 and 12.7996 and 18.6335	91.6861 and 127.114 and 140.005 and 143.301 and 145.198	29.6105 and 35.3113 and 28.8948 and 32.5316 and 40.9787	108.289 and 119.541 and 122.853 and 118.675 and 131.225	92.6182 and 112.666 and 109.446 and 93.7916 and 129.078	104.877 and 113.673 and 115.995 and 128.978 and 91.4031	94.8735 and 136.951 and 131.242 and 108.447 and 144.149	–

More lines, now with the values behind:

Compound	NanoBRET(%) (NanoLuc-CRBN fusion; drug concentration 1.00E-05 M)	NanoBRET(%) (NanoLuc-CRBN fusion; drug concentration 1.60E-08 M)	NanoBRET(%) (NanoLuc-CRBN fusion; drug concentration 2.00E-06 M)	NanoBRET(%) (NanoLuc-CRBN fusion; drug concentration 3.20E-09 M)	NanoBRET(%) (NanoLuc-CRBN fusion; drug concentration 4.00E-07 M)	NanoBRET(%) (NanoLuc-CRBN fusion; drug concentration 8.00E-08 M)	IC50 (NanoLuc-CRBN fusion)	Degradation at 200 nM (percentage of BTK degradation) (BTK [1])	Cell viability, MOML-14 (MOLM-14 cells; drug concentration 1.00E-05 M)	Cell viability, MOML-14 (MOLM-14 cells; drug concentration 1.60E-08 M)	Cell viability, MOML-14 (MOLM-14 cells; drug concentration 2.00E-06 M)	Cell viability, MOML-14 (MOLM-14 cells; drug concentration 3.20E-09 M)	Cell viability, MOML-14 (MOLM-14 cells; drug concentration 4.00E-07 M)	Cell viability, MOML-14 (MOLM-14 cells; drug concentration 6.40E-10 M)	Cell viability, MOML-14 (MOLM-14 cells; drug concentration 8.00E-08 M)	other results
CCCNc1nc(Nc2ccc(C#N)cc2)ncc1C#CCCCNC(=O)[C@H](C)N(C)C(=O)CCCN(C)CCCNC(=O)CCNc1cccc2c1C(=O)N(C1CCC(=O)NC1=O)C2=O (stereo partly shown) [RNC-FLT3]	48.4243% and 48.1518% and 48.288%	120.01% and 113.24% and 126.78%	97.5318% and 86.9073% and 76.2828%	100.446% and 106.017%	98.4352% and 83.544% and 119.955%	117.071% and 115.752% and 114.432%	10100 nM	–	–	–	–	–	–	–	–	–
CCCNc1nc(Nc2ccc(C#N)cc2)ncc1C#CCCCNC(=O)[C@H](C)N(C)C(=O)/C=C/CN(C)CCCNC(=O)CCNc1cccc2c1C(=O)N(C1CCC(=O)NC1=O)C2=O (stereo partly shown) [IRC-FLT3]	33.2279% and 26.4905% and 27.0048%	92.7988% and 108.391% and 111.382%	38.4699% and 38.0091% and 38.2395%	129.579% and 139.696% and 92.9737%	76.4349% and 76.1877% and 65.5306%	100.627% and 103.984% and 84.3671%	1500 nM	–	–	–	–	–	–	–	–	–
CCCNc1nc(Nc2ccc(C#N)cc2)ncc1C#CCCCNC(=O)[C@H](C)N(C)C(=O)/C(C#N)=C/C(C)(C)N(C)CCCNC(=O)CCNc1cccc2c1C(=O)N(C1CCC(=O)NC1=O)C2=O (stereo partly shown) [RC-FLT3]	35.9991% and 14.2807% and 25.1399%	91.6727% and 89.8569% and 90.7648%	22.2416% and 18.9083% and 40.0723%	100.385% and 96.7751% and 101.754%	38.0473% and 34.6413% and 45.5817%	64.8551% and 66.5991% and 71.8605%	300 nM	–	–	–	–	–	–	–	–	–
CN(CCOCCNC(=O)CNc1ccc2c(c1)C(=O)N(C1CCC(=O)NC1=O)C2=O)C(C)(C)C=C(C#N)C(=O)N1CCC[C@@H](n2nc(-c3ccc(Oc4ccccc4)cc3)c3c(N)ncnc32)C1 (stereo partly shown) [RC-10]	–	–	–	–	–	–	–	–	6.648 and 2.814 and 5.855 and 1.001 and 2.266	84.9481 and 73.56 and 76.0529 and 61.3598 and 63.4939	15.1841 and 8.971 and 14.3343 and 7.989 and 11.1237	88.1209 and 77.847 and 69.5373 and 71.6336 and 68.102	52.6534 and 38.4514 and 40.831 and 37.0727 and 36.6572	87.0746 and 98.5269 and 68.2342 and 85.7413 and 74.9197	70.5949 and 66.9688 and 60.3777 and 66.9311 and 50.1039	BTK degradation (in words) (BTK [1]; indicated doses, 24 h): cannot induce any BTK degradation
CCC(=O)N1CCCC(n2nc(-c3ccc(Oc4ccccc4)cc3)c3c(N)ncnc32)C1 (stereo not shown) [RNC-Ctrl]	–	–	–	–	–	–	–	–	9.88 and 4.549 and 8.014 and 2.825 and 3.518	95.1882 and 83.3008 and 72.3018 and 73.7944 and 64.519	23.8281 and 18.1065 and 24.6633 and 17.9289 and 14.3751	99.7903 and 102.278 and 76.2998 and 63.1686 and 63.4529	54.0886 and 58.7263 and 56.6474 and 49.4687 and 44.0492	93.8377 and 115.463 and 71.822 and 77.5792 and 66.4558	94.9216 and 79.4804 and 66.9 and 56.8073 and 62.3334	IC50 (MOLM-14 cells; Homo sapiens, MOLM-14, 72 h, read-out: Cell viability IC50): 420 nM; IC50 (BTK [2]): 13.6 nM; activity at 12.8 pM (BTK [2]; Supplementary Figure 5, drug concentration 12.8 pM, replicates, read-out: Inhibition(%)): 94.1%; activity at 64 pM (BTK [2]; Supplementary Figure 5, drug concentration 64 pM, replicates, read-out: Inhibition(%)): 94%; activity at 0.00032 µM (BTK [2]; Supplementary Figure 5, drug concentration 320 pM, replicates, read-out: Inhibition(%)): 92.7%; activity at 0.0016 µM (BTK [2]; Supplementary Figure 5, drug concentration 1600 pM, replicates, read-out: Inhibition(%)): 83.1%; activity at 0.008 µM (BTK [2]; Supplementary Figure 5, drug concentration 8000 pM, replicates, read-out: Inhibition(%)): 62.4%; activity at 0.04 µM (BTK [2]; Supplementary Figure 5, drug concentration 40000 pM, replicates, read-out: Inhibition(%)): 29.6%; activity at 0.2 µM (BTK [2]; Supplementary Figure 5, drug concentration 200000 pM, replicates, read-out: Inhibition(%)): 9.18%; activity at 1 µM (BTK [2]; Supplementary Figure 5, drug concentration 1000000 pM, replicates, read-out: Inhibition(%)): 3.99%; reduction of BTK inhibition activity compared with IRC-Ctrl (BTK [2]; ratio of IC50 values): 45 folds; activity at 2.56 pM (BTK [2]; read-out: Inhibition(%), Supplementary Figure 5, drug concentration 2.56 pM, replicates): 110%
